{
  "source": "ChEMBL document CHEMBL3525998",
  "about": "“Metabolism of saikosaponin a in rats: diverse oxidations on the aglycone moiety in liver and intestine in addition to hydrolysis of glycosidic bonds” (Drug Metab Dispos, 2013)",
  "format_in_all_cases": "ADME, organism-based",
  "key": {"Plasma [1]": {"test_system": "Plasma", "assay": "Drug metabolism in Sprague-Dawley rat plasma assessed as metabolite saikogenin f formation at 15 mg/kg, iv by LC-DAD-IT-TOF-MS analysis", "set-up": "dose 15 mg/kg, route intravenous", "settings": "in vivo; call rule not given here"}, "[2]": {"assay": "Drug excretion in Sprague-Dawley rat urine assessed as metabolite delta1-saikogenin f level at 15 mg/kg, iv by LC-DAD-IT-TOF-MS analysis", "set-up": "dose 15 mg/kg, route intravenous", "settings": "in vivo"}, "Plasma [3]": {"test_system": "Plasma", "assay": "Drug uptake in Sprague-Dawley rat plasma at 50 mg/kg, po administered through gavage by LC-DAD-IT-TOF-MS analysis", "set-up": "dose 50 mg/kg, route oral", "settings": "in vivo"}, "Plasma [4]": {"test_system": "Plasma", "assay": "Drug metabolism in Sprague-Dawley rat plasma assessed as metabolite hydroxysaikosaponin a formation at 50 mg/kg, po administered through gavage by LC-DAD-IT-TOF-MS analysis", "set-up": "dose 50 mg/kg, route oral", "settings": "in vivo"}, "[5]": {"assay": "Drug excretion in Sprague-Dawley rat bile assessed as metabolite saikogenin f level at 50 mg/kg, po administered through gavage by LC-DAD-IT-TOF-MS analysis", "set-up": "dose 50 mg/kg, route oral", "settings": "in vivo"}, "[6]": {"assay": "Drug excretion in Sprague-Dawley rat bile assessed as metabolite hydroxysaikosaponin a level at 15 mg/kg, iv by LC-DAD-IT-TOF-MS analysis", "set-up": "dose 15 mg/kg, route intravenous", "settings": "in vivo"}, "[7]": {"assay": "Drug excretion in Sprague-Dawley rat bile assessed as metabolite hydroxysaikosaponin a level at 50 mg/kg, po administered through gavage by LC-DAD-IT-TOF-MS analysis", "set-up": "dose 50 mg/kg, route oral", "settings": "in vivo"}, "[8]": {"assay": "Drug excretion in Sprague-Dawley rat bile at 15 mg/kg, iv by LC-DAD-IT-TOF-MS analysis", "set-up": "dose 15 mg/kg, route intravenous", "settings": "in vivo"}, "[9]": {"assay": "Drug excretion in Sprague-Dawley rat bile assessed as metabolite 3-keto-saikogenin f level at 15 mg/kg, iv by LC-DAD-IT-TOF-MS analysis", "set-up": "dose 15 mg/kg, route intravenous", "settings": "in vivo"}, "[10]": {"assay": "Drug excretion in Sprague-Dawley rat urine at 50 mg/kg, po administered through gavage by LC-DAD-IT-TOF-MS analysis", "set-up": "dose 50 mg/kg, route oral", "settings": "in vivo"}, "[11]": {"assay": "Drug excretion in Sprague-Dawley rat bile assessed as metabolite saikogenin f level at 15 mg/kg, iv by LC-DAD-IT-TOF-MS analysis", "set-up": "dose 15 mg/kg, route intravenous", "settings": "in vivo"}, "Plasma [12]": {"test_system": "Plasma", "assay": "Drug metabolism in Sprague-Dawley rat plasma assessed as metabolite prosaikogenin f formation at 15 mg/kg, iv by LC-DAD-IT-TOF-MS analysis", "set-up": "dose 15 mg/kg, route intravenous", "settings": "in vivo"}, "[13]": {"assay": "Drug excretion in Sprague-Dawley rat urine assessed as metabolite 3-keto-saikogenin f level at 15 mg/kg, iv by LC-DAD-IT-TOF-MS analysis", "set-up": "dose 15 mg/kg, route intravenous", "settings": "in vivo"}, "[14]": {"assay": "Drug excretion in Sprague-Dawley rat feces assessed as metabolite saikogenin f-27-oic acid level at 15 mg/kg, iv by LC-DAD-IT-TOF-MS analysis", "set-up": "dose 15 mg/kg, route intravenous", "settings": "in vivo"}, "Plasma [15]": {"test_system": "Plasma", "assay": "Drug metabolism in Sprague-Dawley rat plasma assessed as metabolite hydroxysaikosaponin a formation at 15 mg/kg, iv by LC-DAD-IT-TOF-MS analysis", "set-up": "dose 15 mg/kg, route intravenous", "settings": "in vivo"}, "[16]": {"assay": "Drug excretion in Sprague-Dawley rat feces assessed as metabolite prosaikogenin f level at 50 mg/kg, po administered through gavage by LC-DAD-IT-TOF-MS analysis", "set-up": "dose 50 mg/kg, route oral", "settings": "in vivo"}, "[17]": {"assay": "Drug excretion in Sprague-Dawley rat bile assessed as metabolite delta1-saikogenin f level at 50 mg/kg, po administered through gavage by LC-DAD-IT-TOF-MS analysis", "set-up": "dose 50 mg/kg, route oral", "settings": "in vivo"}, "[18]": {"assay": "Drug excretion in Sprague-Dawley rat feces at 50 mg/kg, po administered through gavage by LC-DAD-IT-TOF-MS analysis", "set-up": "dose 50 mg/kg, route oral", "settings": "in vivo"}, "[19]": {"assay": "Drug excretion in Sprague-Dawley rat feces assessed as metabolite saikogenin f level at 15 mg/kg, iv by LC-DAD-IT-TOF-MS analysis", "set-up": "dose 15 mg/kg, route intravenous", "settings": "in vivo"}, "[20]": {"assay": "Drug excretion in Sprague-Dawley rat bile assessed as metabolite saikogenin f-27-oic acid level at 15 mg/kg, iv by LC-DAD-IT-TOF-MS analysis", "set-up": "dose 15 mg/kg, route intravenous", "settings": "in vivo"}, "[21]": {"assay": "Drug excretion in Sprague-Dawley rat urine assessed as metabolite saikogenin f-27-oic acid level at 15 mg/kg, iv by LC-DAD-IT-TOF-MS analysis", "set-up": "dose 15 mg/kg, route intravenous", "settings": "in vivo"}, "[22]": {"assay": "Drug excretion in Sprague-Dawley rat feces assessed as metabolite delta1-saikogenin f level at 50 mg/kg, po administered through gavage by LC-DAD-IT-TOF-MS analysis", "set-up": "dose 50 mg/kg, route oral", "settings": "in vivo"}, "Plasma [23]": {"test_system": "Plasma", "assay": "Drug metabolism in Sprague-Dawley rat plasma assessed as metabolite saikogenin f-27-oic acid formation at 15 mg/kg, iv by LC-DAD-IT-TOF-MS analysis", "set-up": "dose 15 mg/kg, route intravenous", "settings": "in vivo"}, "[24]": {"assay": "Drug excretion in Sprague-Dawley rat feces at 15 mg/kg, iv by LC-DAD-IT-TOF-MS analysis", "set-up": "dose 15 mg/kg, route intravenous", "settings": "in vivo"}, "[25]": {"assay": "Drug excretion in Sprague-Dawley rat urine assessed as metabolite 3-keto-saikogenin f level at 50 mg/kg, po administered through gavage by LC-DAD-IT-TOF-MS analysis", "set-up": "dose 50 mg/kg, route oral", "settings": "in vivo"}, "[26]": {"assay": "Drug excretion in Sprague-Dawley rat urine assessed as metabolite hydroxysaikosaponin a level at 50 mg/kg, po administered through gavage by LC-DAD-IT-TOF-MS analysis", "set-up": "dose 50 mg/kg, route oral", "settings": "in vivo"}, "[27]": {"assay": "Drug excretion in Sprague-Dawley rat urine assessed as metabolite saikogenin f level at 15 mg/kg, iv by LC-DAD-IT-TOF-MS analysis", "set-up": "dose 15 mg/kg, route intravenous", "settings": "in vivo"}, "Plasma [28]": {"test_system": "Plasma", "assay": "Drug metabolism in Sprague-Dawley rat plasma assessed as metabolite 3-keto-saikogenin f formation at 15 mg/kg, iv by LC-DAD-IT-TOF-MS analysis", "set-up": "dose 15 mg/kg, route intravenous", "settings": "in vivo"}, "Rattus norvegicus": {"species": "Rattus norvegicus", "assay": "Drug metabolism in Sprague-Dawley rat assessed as retention time by LC-DAD-IT-TOF-MS analysis"}, "[29]": {"assay": "Drug excretion in Sprague-Dawley rat feces assessed as metabolite prosaikogenin f level at 15 mg/kg, iv by LC-DAD-IT-TOF-MS analysis", "set-up": "dose 15 mg/kg, route intravenous", "settings": "in vivo"}, "[30]": {"assay": "Drug excretion in Sprague-Dawley rat feces assessed as metabolite 3-keto-saikogenin f level at 50 mg/kg, po administered through gavage by LC-DAD-IT-TOF-MS analysis", "set-up": "dose 50 mg/kg, route oral", "settings": "in vivo"}, "Plasma [31]": {"test_system": "Plasma", "assay": "Drug metabolism in Sprague-Dawley rat plasma assessed as metabolite delta1-saikogenin f formation at 50 mg/kg, po administered through gavage by LC-DAD-IT-TOF-MS analysis", "set-up": "dose 50 mg/kg, route oral", "settings": "in vivo"}, "Plasma [32]": {"test_system": "Plasma", "assay": "Drug metabolism in Sprague-Dawley rat plasma assessed as metabolite 3-keto-saikogenin f formation at 50 mg/kg, po administered through gavage by LC-DAD-IT-TOF-MS analysis", "set-up": "dose 50 mg/kg, route oral", "settings": "in vivo"}, "[33]": {"assay": "Drug excretion in Sprague-Dawley rat bile assessed as metabolite saikogenin f-27-oic acid level at 50 mg/kg, po administered through gavage by LC-DAD-IT-TOF-MS analysis", "set-up": "dose 50 mg/kg, route oral", "settings": "in vivo"}, "[34]": {"assay": "Drug excretion in Sprague-Dawley rat urine assessed as metabolite prosaikogenin f level at 15 mg/kg, iv by LC-DAD-IT-TOF-MS analysis", "set-up": "dose 15 mg/kg, route intravenous", "settings": "in vivo"}, "[35]": {"assay": "Drug excretion in Sprague-Dawley rat bile at 50 mg/kg, po administered through gavage by LC-DAD-IT-TOF-MS analysis", "set-up": "dose 50 mg/kg, route oral", "settings": "in vivo"}, "Plasma [36]": {"test_system": "Plasma", "assay": "Drug metabolism in Sprague-Dawley rat plasma assessed as metabolite delta1-saikogenin f formation at 15 mg/kg, iv by LC-DAD-IT-TOF-MS analysis", "set-up": "dose 15 mg/kg, route intravenous", "settings": "in vivo"}, "Plasma [37]": {"test_system": "Plasma", "assay": "Drug metabolism in Sprague-Dawley rat plasma assessed as metabolite saikogenin f-27-oic acid formation at 50 mg/kg, po administered through gavage by LC-DAD-IT-TOF-MS analysis", "set-up": "dose 50 mg/kg, route oral", "settings": "in vivo"}},
  "data": [
    {"compound": "C[C@H]1O[C@@H](O[C@H]2CC[C@@]3(C)[C@@H](CC[C@]4(C)[C@@H]3C=C[C@]35OC[C@@]6(CCC(C)(C)C[C@H]63)[C@@H](O)C[C@]54C)[C@]2(C)CO)[C@H](O)[C@@H](O[C@@H]2O[C@H](CO)[C@@H](O)[C@H](O)[C@H]2O)[C@H]1O", "note": "[SAIKOSAPONIN A]", "values": [
      {"measurement": "Drug metabolism", "setting": "Plasma [1]", "result": "metabolite_not_detected"},
      {"measurement": "Drug excretion", "setting": "[2]", "result": "metabolite_not_detected"},
      {"measurement": "Drug uptake", "setting": "Plasma [3]", "result": "Active"},
      {"measurement": "Drug metabolism", "setting": "Plasma [4]", "result": "metabolite_not_detected"},
      {"measurement": "Drug excretion", "setting": "[5]", "result": "metabolite_not_detected"},
      {"measurement": "Drug excretion", "setting": "[6]", "result": "metabolite_detected"},
      {"measurement": "Drug excretion", "setting": "[7]", "result": "metabolite_not_detected"},
      {"measurement": "Drug excretion", "setting": "[8]", "result": "metabolite_detected"},
      {"measurement": "Drug excretion", "setting": "[9]", "result": "metabolite_not_detected"},
      {"measurement": "Drug excretion", "setting": "[10]", "result": "metabolite_detected"},
      {"measurement": "Drug excretion", "setting": "[11]", "result": "metabolite_not_detected"},
      {"measurement": "Drug metabolism", "setting": "Plasma [12]", "result": "metabolite_detected"},
      {"measurement": "Drug excretion", "setting": "[13]", "result": "metabolite_not_detected"},
      {"measurement": "Drug excretion", "setting": "[14]", "result": "metabolite_detected"},
      {"measurement": "Drug metabolism", "setting": "Plasma [15]", "result": "metabolite_not_detected"},
      {"measurement": "Drug excretion", "setting": "[16]", "result": "metabolite_detected"},
      {"measurement": "Drug excretion", "setting": "[17]", "result": "metabolite_not_detected"},
      {"measurement": "Drug excretion", "setting": "[18]", "result": "metabolite_detected"},
      {"measurement": "Drug excretion", "setting": "[19]", "result": "metabolite_detected"},
      {"measurement": "Drug excretion", "setting": "[20]", "result": "metabolite_not_detected"},
      {"measurement": "Drug excretion", "setting": "[21]", "result": "metabolite_not_detected"},
      {"measurement": "Drug excretion", "setting": "[22]", "result": "metabolite_detected"},
      {"measurement": "Drug metabolism", "setting": "Plasma [23]", "result": "metabolite_not_detected"},
      {"measurement": "Drug excretion", "setting": "[24]", "result": "metabolite_not_detected"},
      {"measurement": "Drug excretion", "setting": "[25]", "result": "metabolite_detected"},
      {"measurement": "Drug excretion", "setting": "[26]", "result": "metabolite_not_detected"},
      {"measurement": "Drug excretion", "setting": "[27]", "result": "metabolite_not_detected"},
      {"measurement": "Drug metabolism", "setting": "Plasma [28]", "result": "metabolite_not_detected"},
      {"measurement": "Retention_time", "setting": "Rattus norvegicus", "result": 39.9, "unit": "min"},
      {"measurement": "Drug excretion", "setting": "[29]", "result": "metabolite_detected"},
      {"measurement": "Drug excretion", "setting": "[30]", "result": "metabolite_detected"},
      {"measurement": "Drug metabolism", "setting": "Plasma [31]", "result": "metabolite_not_detected"},
      {"measurement": "Drug metabolism", "setting": "Plasma [32]", "result": "metabolite_not_detected"},
      {"measurement": "Drug excretion", "setting": "[33]", "result": "metabolite_not_detected"},
      {"measurement": "Drug excretion", "setting": "[34]", "result": "metabolite_detected"},
      {"measurement": "Drug excretion", "setting": "[35]", "result": "metabolite_detected"},
      {"measurement": "Drug metabolism", "setting": "Plasma [36]", "result": "metabolite_not_detected"},
      {"measurement": "Drug metabolism", "setting": "Plasma [37]", "result": "metabolite_not_detected"}
    ]}
  ]
}
